Measured values taken from patent EP0588608A2, “Tricyclic compounds and pharmaceutical compositions containing them” (KYOWA HAKKO KOGYO CO., LTD., priority 1992, dated 1994).

Legend:
ACAT = ACAT inhibiting activity test using HepG2 cells; assay type: cell-based; details: 10⁻⁶M test compound, human cultured cell line HepG2, [14C]-oleic acid incorporation into cholesterol ester; 1 µM
Description: The ACAT inhibiting activity test using cells of human cultured cell line HepG2 was carried out in accordance with the method of Goldstein et al as described in Methods Enzymology, 98, 241, 1983. 5 x 10⁵ cells/well of human cultured cell line HepG2 were pre-cultured in 5% LPDS (rabbit lipoprotein-deficient serum)-DMEM (Dulbecco Modified Eagle Medium) overnight, and the medium was changed for a fresh 5% LPDS-DMEM (1 mℓ/well). To the medium having the cells were added 3 µℓ, as a whole, of cholesterol and 25-OH-cholesterol as dissolved in ethanol (with the final concentration being 10 µg/mℓ and 5 µg/mℓ, respectively) and 10 µℓ of a test compound (shown in Table 3 below) as dissolved in methanol (with the final concentration being 10⁻⁶M). The cells were cultured for 4 hours. Then, 10 µℓ (0.42 µCi/0.1 µmol/well) of [¹⁴C]-oleic acid-BSA (bovine serum albumin) complex was added to the medium, and the cells were cultured for further 2 hours. After the cultured cells were washed, the lipid of the cells was extracted with 0.5 mℓ/well of hexane/isopropanol (3/2) containing [3H]-cholesterol oleic acid 2000 dpm. The extract was dried to a solid under reduced pressure and the solid was fractionated by silica gel thin layer chromatography using a developing solvent of petroleum ether/diethyl ether/acetic acid (170/30/1) whereupon the radioactivity of the spot of the cholesterol ester was measured with a liquid scintillation counter. Subtracting the radioactivity of the blank test to which cholesterol and 25-OH-cholesterol were not added from the radioactivity as measured above gives the radioactivity of the test compound. The ACAT inhibiting activity of the test compound was calculated from the following equation, based on the radioactivity of the control group as obtained in the same manner as above without using the test compound. ACAT Inhibition (%) = {[Radioactivity of Control Group) - (Radioactivity of Test Compound)]/(Radioactivity of Control Group)} x 100

male ddy strain mice = test: Test for acute toxicity (minimum lethal dose, oral); assay type: in vivo; details: orally administered, mortality observed seven days after administration
Description: Groups of 3 male ddy strain mice weighing 20±1g were used. The test compounds were orally administered. Seven days after administration, the mortality was observed and the minimum lethal dose (MLD) was determined.

SMILES	Percentage of ACAT Inhibition (ACAT) [%]	Acute Toxicity (MLD) (male ddy strain mice) [mg/kg]
Cc1ccc2c(c1)C(CNC(=O)Nc1c(C(C)C)cccc1C(C)C)c1ccccc1CO2 (centres unmarked) [Compound 1, N-(2,6-diisopropylphenyl)-N'-(2-methyl-6,11-dihydrodibenz[b,e]oxepin-11-ylmethyl)urea]	99	–
CC(C)c1cccc(C(C)C)c1NC(=O)OCC1c2ccccc2COc2ccccc21 (centres unmarked) [Compound 6, (6,11-Dihydrodibenz[b,e]oxepin-11-ylmethyl)-(2,6-diisopropylphenyl)carbamate]	40	–
Cc1cc2c(c(C)c1Br)C(CNC(=O)Nc1c(C(C)C)cccc1C(C)C)c1ccccc1CO2 (centres unmarked) [Compound 3, N-(2,6-diisopropylphenyl)-N'-(2-bromo-1,3-dimethyl-6,11-dihydrobenz[b,e]oxepin-11-ylmethyl)urea]	97	–
CC(C)c1cccc(C(C)C)c1NC(=O)NC=C1c2ccccc2COc2ccccc21 [Compound 4]	93	–
CC(C)c1cccc(C(C)C)c1NC(=O)NC=C1c2ccccc2CCc2ccccc21 [Compound 5]	94	>300
CC(C)c1cccc(C(C)C)c1NC(=O)NCC1c2ccccc2COc2ccc(Br)cc21 (centres unmarked) [Compound 2, N-(2,6-diisopropylphenyl)-N'-(2-bromo-6,11-dihydrodibenz[b,e]oxepin-11-ylmethyl)urea]	98	>300
